{
  "source": "patent EP1424337A1",
  "about": "“4-hydroxy derivatives of 5,6,9,10-tetrahydro-10-((2-methyl-1h-imidazol-1-yl)methyl)-4h-pyrido-(3,2,1-jk)-carbazol-11(8h)-one” (Solvay Pharmaceuticals GmbH, priority 2002, dated 2004)",
  "key": {"5-HT3 receptor": {"molecular_target": "T1, 5-HT3 receptor (Cavia porcellus, UniProt O70212)", "T1 construct": "lleal segments were isolated and mounted in an organ bath; from tissue; host or cells: isolated guinea-pig ileal segments (female, Pirbright White)", "T1 sequence (O70212 20-490)": "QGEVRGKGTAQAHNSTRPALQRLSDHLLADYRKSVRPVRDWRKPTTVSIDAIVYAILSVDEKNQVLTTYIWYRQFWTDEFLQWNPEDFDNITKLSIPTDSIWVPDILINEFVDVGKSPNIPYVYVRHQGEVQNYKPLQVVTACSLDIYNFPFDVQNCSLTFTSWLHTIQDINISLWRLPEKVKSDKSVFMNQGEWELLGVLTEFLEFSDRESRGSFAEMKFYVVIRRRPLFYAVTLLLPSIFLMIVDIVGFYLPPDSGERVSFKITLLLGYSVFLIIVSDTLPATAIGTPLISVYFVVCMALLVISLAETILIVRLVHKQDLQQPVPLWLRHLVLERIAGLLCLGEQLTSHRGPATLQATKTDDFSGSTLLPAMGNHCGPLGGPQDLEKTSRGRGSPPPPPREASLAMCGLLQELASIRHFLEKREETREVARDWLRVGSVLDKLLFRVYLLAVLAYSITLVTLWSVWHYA", "experiment": "2-methyl-5-HT induced contractions in isolated guinea-pig ileal preparations (5-HT3 receptor antagonism, Schild plot)", "set-up": "species or system guinea pigs", "details": "for effect on concentration response curve for 2-methyl-5-HT: bath application; for effect on concentration response curve for 2-methyl-5-HT / Kb: guinea-pig ileum; for Kb: agonist 2-methyl-5-HT 0.32 - 100 µM, bath concentrations 0.1 and 1 µM (Ib), 1 and 3 µM (Ic), 5-6 preparations, read-out: pA2 (converted)", "source_text": "2. Effect of mammalian cilansetron 4-hydroxymetabolites from dog's urine of formulas Ib and Ic on 2-methyl-5-HT induced contractions in ileal preparations isolated from guinea pigs (5-HT3 receptor antagonism)\nIn this test method, the antagonistic potency of the mammalian cilansetron 4-hydroxymetabolites from dog's urine of formulas Ib and Ic was investigated by determining the shift of the concentration-response curve for the specific 5-HT3 receptor agonist 2-methyl-5-HT in preparations from the guinea-pig ileum.\nGuinea-pigs (female, Pirbright White, about 300 g) were killed by a blow on the head and bled from the carotid arteries. lleal segments were isolated and mounted in an organ bath containing a salt solution continuously gassed with carbogen and kept at 37 °C. The composition of the solution in mM was 136.9 NaCl, 2.7 KCI, 1.77 CaCl2, 0.8 MgCl2, 0.6 NaH2PO4, 11.9 NaHCO3, and 5 glucose. The preparations were preloaded with 10 mN and allowed to equilibrate for 90 - 120 minutes (= min.). The concentration response curves for 2-methyl-5-HT (0.32 - 100 µM, by company Sigma) were constructed non-cumulatively to avoid desensitization. The measurement was made at the point of maximal contraction and the agonist was washed out as soon as peak response was reached. A first 2-methyl-5-HT curve was followed by another concentration response curve in the presence of one concentration of the antagonist. The response to the highest concentration of 2-methyl-5-HT obtained in the first concentration response curve was set to 100 %. For each compound at least two concentrations of the antagonist were tested in different sets. Data from 5-6 preparations were used for each concentration response curve. Schild plots were calculated and the pA2 value was determined. The pA2-value is the negative logarithm of the molar concentration of the antagonist which causes a rightward shift of the concentration response curve for the agonist by a factor of 2. The higher the pA2-value is, the higher is the potency of a compound.\nAll test compounds were initially dissolved in dimethylsulfoxide (= DMSO) at concentrations of 10^-2 mol/I and were further diluted with water. The final bath concentrations for the different compounds used were 0.1 and 1 µM for compound of formula Ib and 1 and 3 µM for compound of formula Ic. […]\nIn this test method, the 5-HT3 agonist 2-methyl-5-HT evoked dose-dependent contractions of the guinea-pig ileum with a pD2-value of 5.2. The pD2-value is the negative logarithm of the molar […]."}, "serotonin 5-HT3 receptor": {"molecular_target": "T2, serotonin 5-HT3 receptor (Mus musculus, UniProt P23979)", "T2 construct": "the 5-HT3 receptor which was endogenously expressed in the human cell line N1E-115; endogenous in cells; host or cells: N1E-115 neuroblastoma cells (membrane suspensions)", "T2 sequence (P23979 24-483 isoform P23979-2 limits assumed)": "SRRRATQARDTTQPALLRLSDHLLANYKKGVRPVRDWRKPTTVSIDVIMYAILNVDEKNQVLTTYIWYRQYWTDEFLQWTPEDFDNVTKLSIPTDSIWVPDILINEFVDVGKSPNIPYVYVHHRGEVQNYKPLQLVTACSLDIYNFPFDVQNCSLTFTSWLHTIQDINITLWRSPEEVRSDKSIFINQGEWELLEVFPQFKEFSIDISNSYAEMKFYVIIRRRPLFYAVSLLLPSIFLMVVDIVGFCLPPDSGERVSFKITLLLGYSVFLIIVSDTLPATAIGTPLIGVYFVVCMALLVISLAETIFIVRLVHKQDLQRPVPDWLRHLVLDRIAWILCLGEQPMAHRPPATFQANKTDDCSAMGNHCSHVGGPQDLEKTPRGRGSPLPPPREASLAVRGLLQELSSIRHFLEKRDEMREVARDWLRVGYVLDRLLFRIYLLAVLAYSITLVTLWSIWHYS", "experiment": "Radioligand binding assay with [3H]-GR-65630 on membranes of cell line N1E-115", "set-up": "species or system human", "details": "for Ki: competition with [^3H]-GR-65630 (0.35 nM), N1E-115 membranes, 20 mM HEPES pH 7.4, 150 mM NaCl, 25°C, 60 min, Cheng and Prusoff, read-out: Kl", "experimental": "1. Affinity of 4-hydroxy derivatives of 5,6,9,10-tetrahydro-10-[(2-methyl-1H-imidazol-1-yl)methyl]-4H pyrido-[3,2,1-jk]-carbazol-11(8H)-one of formulas Ib - le for the human serotonin 5-HT3 receptor\nIn this test method, the ability of the 4-hydroxy derivatives of 5,6,9,10-tetrahydro-10-[(2-methyl-1H-imidazol-1-yl)methyl]-4H-pyrido-[3,2,1-jk]-carbazol-11(8H)-one of formulas Ib - le was assessed, for binding to the 5-HT3 receptor which was endogenously expressed in the human cell line N1E-115 and using tritiated GR-65630 as a radioligand.\nThe binding assays were carried out using the method of Hoyer and Neijt (see Hoyer, D., Neijt H.C., Mol. Pharmacol. 33, (1988) 303-309). Tritiated GR-65630 was used as radioligand and membrane suspensions, prepared in a known manner from the human neuroblastoma cell line N1E-115. Compounds have been tested for binding in various concentrations to compete with [^3H]-GR-65630 (0.35 nM final concentration) in 20 mM HEPES pH 7.4, containing 150 mM NaCl at 25°C for 60 min. Thereafter, the membranes were filtrated over glass fiber filters and bound radioactivity was counted by liquid scintillation counting. Each concentration was tested in triplicate, nonspecific binding was assessed by incubation with the reference compound MDL-72222 (1 µM).\nPlotting the amount of bound radioactivity against the concentration of the competing compound allowed estimation of an IC50 value, i.e. that concentration at which 50% of the control radioligand binding remains. […]"}},
  "data": [
    {"smiles": "Cc1[nH]c2ccc(O)cc2c1CCN", "note": "[2-methyl-5-HT, reference compound]", "values": [
      {"measurement": "EC50", "setting": "5-HT3 receptor; agonist-evoked dose-dependent contractions of the guinea-pig ileum, read-out: pD2-value (converted)", "value": 6310, "unit": "nM"}
    ]},
    {"smiles": "Cc1nccn1C[C@H]1CCc2c(c3cccc4c3n2CC[C@@H]4O)C1=O", "note": "[Ib]", "values": [
      {"measurement": "Ki", "setting": "serotonin 5-HT3 receptor", "value": 3, "unit": "nM"},
      {"measurement": "effect on concentration response curve for 2-methyl-5-HT", "setting": "5-HT3 receptor", "value": "dose-dependent shift of the concentration response curve to the right"},
      {"measurement": "Kb", "setting": "5-HT3 receptor", "value": 186, "unit": "nM"}
    ]},
    {"smiles": "Cc1nccn1C[C@H]1CCc2c(c3cccc4c3n2CC[C@H]4O)C1=O", "note": "[Ic]", "values": [
      {"measurement": "Ki", "setting": "serotonin 5-HT3 receptor", "value": 10, "unit": "nM"},
      {"measurement": "effect on concentration response curve for 2-methyl-5-HT", "setting": "5-HT3 receptor", "value": "dose-dependent shift of the concentration response curve to the right"},
      {"measurement": "Kb", "setting": "5-HT3 receptor", "value": 355, "unit": "nM"}
    ]},
    {"smiles": "Cc1nccn1C[C@@H]1CCc2c(c3cccc4c3n2CC[C@@H]4O)C1=O", "note": "[Id]", "values": [
      {"measurement": "Ki", "setting": "serotonin 5-HT3 receptor", "value": 8.8, "unit": "nM"}
    ]},
    {"smiles": "Cc1[nH]cnc1CCC(=O)c1cn(C)c2ccccc12", "note": "[[^3H]-GR-65630, reference compound]", "values": [
      {"measurement": "Kd", "setting": "serotonin 5-HT3 receptor; radioligand, established separately, read-out: Kd, the affinity constant for [^3H]-GR-65630", "value": 0.33, "unit": "nM"}
    ]},
    {"smiles": "Cc1nccn1C[C@@H]1CCc2c(c3cccc4c3n2CC[C@H]4O)C1=O", "note": "[le]", "values": [
      {"measurement": "Ki", "setting": "serotonin 5-HT3 receptor", "value": 38, "unit": "nM"}
    ]}
  ]
}
